The source of these data is ChEMBL document CHEMBL1201862, “PubChem BioAssay data set” (2004).

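Cultured in 96-well plates, cells were exposed to test compound for 48 hours across five concentrations. GI50 is the concentration that inhibits growth by half.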 Activity calls are given as the source filed them. No stated cut-off is given here; in the data, active = GI50 up to about 1.1 µM and inactive = higher.

Among the test systems are NCI-H23; HT-29; IGROV-1; U-251; NCI-H460; 786-0; NCI-H226; UACC-62; SNB-19; NCI-H522; LOX IMVI; HCC 2998; MOLT-4; A498; RXF 393; LXFL 529; SN12C; HL-60; OVCAR-4.
Holding throughout (test): growth of human tumour cells (NCI), 48 h

On to `NC(=O)c1ccc([N+](=O)[O-])cc1`, for which the GI50 in the experiment with NCI-H23, in the experiment on HT-29, in the experiment with IGROV-1, with U-251, with NCI-H460 and with 786-0 was > 100 µM (inactive) throughout. For the same compound, the GI50 in the experiment with NCI-H226, in the experiment with UACC-62, in the experiment on SNB-19, with NCI-H522, with LOX IMVI and in the experiment with HCC 2998 was > 100 µM (inactive) each time. In addition, the GI50 with MOLT-4, with A498, in the experiment with RXF 393, in the experiment with LXFL 529 and in the experiment with SN12C was > 100 µM (inactive) throughout.
For the compound `COCCN1C2=CCCCC2=Nc2c(N)nc(N)nc21`, the GI50 in the experiment on NCI-H23, in the experiment with HT-29, with IGROV-1, in the experiment with HL-60, with U-251 and in the experiment on NCI-H460 was > 100 µM (inactive) throughout. The GI50 in the experiment with 786-0, in the experiment with NCI-H226, in the experiment with UACC-62, with SNB-19, with NCI-H522 and in the experiment with LOX IMVI was > 100 µM (inactive) each time. For the same compound, the GI50 in the experiment on HCC 2998, in the experiment on MOLT-4, in the experiment with A498, in the experiment on RXF 393, in the experiment on LXFL 529 and in the experiment with SN12C was > 100 µM (inactive) in each case.
Regarding `CC#CC1C2CCCC1(CSc1ccccc1)NC(=O)O2` (centres undefined), the GI50 in the experiment on NCI-H23, in the experiment with HT-29, with IGROV-1, in the experiment with HL-60, with U-251 and with NCI-H460 was > 100 µM (inactive) each time. In addition, the GI50 in the experiment on 786-0, in the experiment with NCI-H226, with UACC-62, with SNB-19, in the experiment on OVCAR-4 and in the experiment on NCI-H522 was > 100 µM (inactive) in each case. Besides, the GI50 is > 100 µM (inactive) in the experiment with HCC 2998; 30.3 µM (inactive) in the experiment on MOLT-4; > 100 µM (inactive) in the experiment with A498; > 100 µM (inactive) with RXF 393; > 100 µM (inactive) in the experiment on LXFL 529; > 100 µM (inactive) in the experiment with SN12C.
For `C=C1C(=O)OC2/C=C(\C)C3OC3/C=C(/C(=O)OC)C(O)C(OC(=O)C3(C)OC3C)C12` (centres undefined), the GI50 in the experiment with NCI-H23 is 1.85 µM (inactive); with HT-29, 1.65 µM (inactive); in the experiment with IGROV-1 it was 2.3 µM (inactive); with U-251 it was 4.58 µM (inactive); in the experiment on NCI-H460 it was 5.41 µM (inactive); in the experiment on 786-0, 1.74 µM (inactive). For the same compound, the GI50 in the experiment on NCI-H226 is 15.1 µM (inactive); with UACC-62, 1.01 µM (active); with OVCAR-4, 2.88 µM (inactive); with NCI-H522, 0.193 µM (active); in the experiment on LOX IMVI, 1.76 µM (inactive); in the experiment on HCC 2998, 1.9 µM (inactive). In addition, the GI50 with MOLT-4 is 0.681 µM (active); in the experiment on A498, 7.64 µM (inactive); in the experiment with RXF 393, 1.02 µM (active); with LXFL 529, 1.36 µM (inactive); in the experiment with SN12C it was 2.39 µM (inactive).
Turning to `O=C1[C@@H]2C(c3c(Cl)cccc3Cl)=NO[C@@H]2C(=O)N1c1ccc(Cc2ccc(N3C(=O)[C@H]4C(c5c(Cl)cccc5Cl)=NO[C@H]4C3=O)cc2)cc1`, the GI50 with NCI-H23, with HT-29, in the experiment on IGROV-1, with HL-60, in the experiment with U-251 and in the experiment on NCI-H460 was > 100 µM (inactive) in each case. The GI50 with 786-0, with NCI-H226, with UACC-62, in the experiment with OVCAR-4, with LOX IMVI and with HCC 2998 was > 100 µM (inactive) in each case. Moreover, the GI50 with MOLT-4, with A498, with RXF 393, in the experiment on LXFL 529 and with SN12C was > 100 µM (inactive) throughout.
As to `CCOC(=O)c1cc2c(OCc3ccccc3)c(OC)cc3c2c(n1)N(c1ccc(OC)cc1)C(C)C3` (centres undefined), the GI50 with NCI-H23 is > 50 µM (inactive); in the experiment on IGROV-1, > 50 µM (inactive); with HL-60 it was 45.6 µM (inactive); in the experiment on U-251 it was 28.6 µM (inactive); in the experiment on NCI-H460, 49.9 µM (inactive); in the experiment on 786-0, > 50 µM (inactive). Moreover, the GI50 in the experiment on UACC-62 was 49.3 µM (inactive); in the experiment on SNB-19, > 50 µM (inactive); in the experiment with OVCAR-4 it was 10.4 µM (inactive); with NCI-H522, 25.2 µM (inactive); in the experiment with LOX IMVI, > 50 µM (inactive); in the experiment on HCC 2998, 44.4 µM (inactive). Further, the GI50 with MOLT-4 was > 50 µM (inactive); in the experiment on A498, > 50 µM (inactive); in the experiment on RXF 393, 33.6 µM (inactive); in the experiment on LXFL 529, 39.4 µM (inactive); in the experiment on SN12C it was > 50 µM (inactive).
Regarding `O=c1c2ccccc2nc(-c2ccccc2)n1NC(=S)Nc1ccc(Cl)cc1[N+](=O)[O-]`, the GI50 was > 100 µM (inactive) with NCI-H23; 69.3 µM (inactive) in the experiment on HT-29; > 100 µM (inactive) in the experiment with IGROV-1; 35.3 µM (inactive) in the experiment with HL-60; 80.4 µM (inactive) with U-251; > 100 µM (inactive) with NCI-H460. In addition, the GI50 with 786-0 is > 100 µM (inactive); in the experiment on NCI-H226, 20.3 µM (inactive); in the experiment on UACC-62, 39.7 µM (inactive); in the experiment with OVCAR-4, 88.5 µM (inactive); in the experiment with NCI-H522 it was 42.7 µM (inactive); with LOX IMVI, 56.8 µM (inactive). Besides, the GI50 in the experiment on MOLT-4 is 73.3 µM (inactive); in the experiment with A498, 94 µM (inactive); in the experiment with RXF 393 it was 22.9 µM (inactive); in the experiment on LXFL 529 it was > 100 µM (inactive); in the experiment on SN12C, 65 µM (inactive).
Regarding `COc1ccc(COCC(Cn2ccnc2)OCc2ccc(C(=O)O)cc2)cc1` (centres undefined), the GI50 in the experiment on NCI-H23, in the experiment on HT-29, in the experiment on IGROV-1, in the experiment with HL-60, in the experiment with U-251 and with NCI-H460 was > 100 µM (inactive) throughout. The GI50 with 786-0, in the experiment with NCI-H226, in the experiment on UACC-62, in the experiment on OVCAR-4, in the experiment with NCI-H522 and in the experiment with LOX IMVI was > 100 µM (inactive) in each case. The GI50 with HCC 2998, with MOLT-4, in the experiment with A498, in the experiment on RXF 393, with LXFL 529 and with SN12C was > 100 µM (inactive) each time.
